Values joined by “and” are separate entries in the source; they are usually repeats but may differ in a detail not shown here. Identical values can stand only once.
Legend:
[1] = biological target: T1, human sst2 receptor sub-type (Homo sapiens, UniProt P30874); experiment: In vitro binding, human sst2 receptor sub-type (SSTR2); conditions: Tables 8/9: Bind SSTR2 nM
T1 construct: host or cells: SRIF receptor expressing cell cultures (general statement only)
Description: The in vitro binding affinities for rat cortex SRIF receptors and the human sst2 receptor sub-type was assessed. Further the in vitro inhibition of the GHRH induced GH secretion in primary cultures of rat pituitary cells as well as the in vivo inhibition of GH secretion in the rat after systemic or enteral application was studied. […] Therefore, the in vivo activities of the compounds in rats with respect to inhibition of growth hormone release was also assessed. Most compounds selected were tested by enteral—intraduodenal (i.d.) application. For determination of the absolute activity and for the calculation of an enteral bioavailability, single subcutaneous (s.c.) application of intravenous (i.v.) infusion was used.

GH secretion [2] = experiment: GH secretion in vivo, rat, subcutaneous application, 1 h (basal); conditions: rat, basal GH secretion, 1 h after subcutaneous application
Description: (§1) Animals, anesthesia: Male rats of a Sprague Dawley strain (Ico:OFA-SD, Iffa-Credo, F-Lyon) of 200-300 g body weight were used. They were kept under standardized conditions and were anesthetized with pentobarbital-sodium (Siegfried, CH Zofingen), 60 mg/kg i.p. for subcutaneous and intraduodenal applications. Animals designed for an infusion experiment were anesthetized with urethane (Siegfried, CH Zofingen), 1.2 g/kg i.p.
(§2) Compounds: The compounds were dissolved, optionally with the aid of one or more of the following adjuncts:
(§3) Stock solutions of the compounds were prepared in water with the addition of the necessary adjunct(s). Further dilutions were prepared allowing 5 mL/kg for subcutaneous application, 2 mL for intraduodenal (i.d.) application or 4.5 mL/kg for intravenous infusion. The solutions for the intravenous application/infusion were made isotonic by addition of glucose to a final concentration of 5%.
(§4) Applications were made, or, in the case of infusion, started, approximately 10 minutes after induction of anesthesia. No further treatment followed subcutaneous or intraduodenal application. Ten, twenty-five and fifty-five minutes after start of the intravenous infusion the GH secretion was stimulated with repeated intravenous injections of the potent GHRH analog, D-Ala2 GHRH1-29NH2, 1 μg/kg.
(§5) One hour after subcutaneous or intraduodenal application of the compounds, blood was collected from the trunk after decapitation. In the case of application by infusion, 5 minutes after each application of GHRH, a blood sample of 0.8 mL was taken from a V. jugularis and mixed with EDTA (Eppendorf tubes TOM14, Milian, CH Geneva). The blood samples were kept on ice and spun in a cooled centrifuge. The serum or plasma was separated and frozen.
(§6) Statistics: In each experiment, 4-5 animals were used per dose, with 6 to 8 animals as the control group that received the vehicle. The GH serum/plasma levels were averaged, the mean of the treated groups expressed in percent of the control group and the ID50-value for the inhibition of the secretion was determined graphically (log-probit) for each experiment. In most experiments with enteral (intraduodenal) application only 1 dose, 10 mg/kg, was given. […] Only inhibitions between 20 and 80% were considered reliable.
(§7) Two to four experiments were performed. In the case of proper dose response curves, allowing the determination of an ID50 values were averaged logarithmically. In the cases of single dose-experiments, the GH value in percent of control were averaged logarithmically and the ID50 for this value was taken from the table. ID50 values determined at the different time points during the infusion were averaged and this value was included in the tables.

GH secretion [3] = experiment: GH secretion in vivo, rat, intraduodenal (enteral) application, 1 h (basal); conditions: basal GH secretion, 1 h after intraduodenal application, mostly approximate ID50 from single 10 mg/kg dose, Ø = no effect at this dose, > = extrapolated value, 10 mg/kg
Description: as §1, §2, §3, §4, §5, §6, §7

[4] = tested on: GHRH stimulated GH secretion; experiment: GH secretion in vivo, rat, intravenous infusion with repeated GHRH stimulation
Description: as §1, §3, §4, §5, §6, §7

[5] = tested on: basal plasma levels of growth hormone, glucagon, insulin and glucose; experiment: Endocrine parameters in the Rhesus monkey after subcutaneous administration; format: in vivo
Description: Therefore, they were further investigated in the Rhesus monkey and their activity profile was determined. Using subcutaneous administration, they were characterized in this species, by measuring their effects on the basal plasma levels of growth hormone, glucagon, insulin as well changes in glucose levels.
Animals and blood sampling: Rhesus monkeys, fed on the previous day in the morning with fruits only, were placed, slightly anesthetized with ketamin (Ketalar©, Parke-Davis), in primate chairs and brought to the experimental room. A catheter, consisting of an in-dwelling cannula (Vasocan Braunüle, 20G, B. Braun Melsungen AG, D-Melsungen), an extension line made from PP 800/110/260/100 Portex© tubing and a special adapter between cannula and tubing with a minimal void volume, was placed in a saphenic vein. The total volume of this catheter was approximately 0.7 mL. The distal end was placed through a hole in the wall to the adjacent room in order to allow infusion and blood sampling without being noticed by the animal. The animals were monitored with a video system.
During the entire duration of the experiment an infusion of 5 to 10 mL/h of isotonic saline (NaCl 0.9% Braun, B. Braun Medical AG, CH-Emmenbrücke) containing heparin sodium 80 mg/L (Biochemie GMBH, A-Kundl) was maintained, using a roller pump (Vario-Perpex, Guldener, CH-Zürich). At each sampling time 1.5 mL (twice the void volume of the catheter) was taken in one syringe before collecting the actual blood sample of 2 mL in another syringe. The first 1.5 mL were reinfused immediately after the actual sample had been taken. The sample was mixed with 0.1 mL of a mixture containing EDTA (ethlenediaminetetraacetic acid tetrasodium Fluka, CH-Buchs) and aprotinin (Trasylol©, Bayer) resulting in final concentrations of 1.8 mg/mL and 1000 KIE/mL, respectively. The blood samples were kept on ice and spun in a cooled centrifuge. […]
Determinations: The blood levels of the hormones were determined by radioimmunoassay (RIA) using the appropriate antisera, antibodies, labels and standards, glucose by an enzymatic assay: […]

SS1 = SS1 (Rattus norvegicus, UniProt P30680); experiment: SS-1 binding (Bind SS1 D.H.)
SSTR1 = biological target: T2, SSTR1 (Homo sapiens, UniProt P30872); experiment: Binding SSTR1; conditions: > = extrapolated value; read-out: Bind SSTR1
T2 construct: host or cells: SRIF receptor expressing cell cultures (general statement only)

SSTR3 = biological target: T3, SSTR3 (Homo sapiens, UniProt P32745); experiment: Binding SSTR3; conditions: > = extrapolated value; read-out: Bind SSTR3
T3 construct: host or cells: SRIF receptor expressing cell cultures (general statement only)

SSTR4 = biological target: T4, SSTR4 (Homo sapiens, UniProt P31391); experiment: Binding SSTR4; conditions: > = extrapolated value; read-out: Bind SSTR4
T4 construct: host or cells: SRIF receptor expressing cell cultures (general statement only)

SSTR5 = biological target: T5, SSTR5 (Homo sapiens, UniProt P35346); experiment: Binding SSTR5; conditions: read-out: Bind SSTR5
T5 construct: host or cells: SRIF receptor expressing cell cultures (general statement only)
T5 sequence (P35346 whole entry, species assumed): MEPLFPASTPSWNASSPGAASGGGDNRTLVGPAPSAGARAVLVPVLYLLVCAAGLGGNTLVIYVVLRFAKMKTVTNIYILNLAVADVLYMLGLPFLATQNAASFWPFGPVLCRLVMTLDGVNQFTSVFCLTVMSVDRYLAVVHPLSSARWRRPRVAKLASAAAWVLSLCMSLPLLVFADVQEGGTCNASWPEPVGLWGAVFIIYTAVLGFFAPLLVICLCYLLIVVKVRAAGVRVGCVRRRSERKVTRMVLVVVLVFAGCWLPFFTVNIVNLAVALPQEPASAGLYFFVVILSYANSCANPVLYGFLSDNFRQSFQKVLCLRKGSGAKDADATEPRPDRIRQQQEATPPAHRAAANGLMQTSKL

T4 sequence (P31391 whole entry, species assumed): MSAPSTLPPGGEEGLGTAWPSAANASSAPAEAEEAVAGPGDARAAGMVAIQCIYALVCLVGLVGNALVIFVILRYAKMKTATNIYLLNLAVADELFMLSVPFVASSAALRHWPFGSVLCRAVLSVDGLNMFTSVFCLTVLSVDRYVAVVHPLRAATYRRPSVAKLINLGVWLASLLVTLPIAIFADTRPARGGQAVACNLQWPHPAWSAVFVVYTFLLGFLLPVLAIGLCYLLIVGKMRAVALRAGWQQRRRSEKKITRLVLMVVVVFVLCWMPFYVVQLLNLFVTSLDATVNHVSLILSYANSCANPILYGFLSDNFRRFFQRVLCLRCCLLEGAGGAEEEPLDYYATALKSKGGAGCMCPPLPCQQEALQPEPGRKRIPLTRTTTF
T1 sequence (P30874 whole entry): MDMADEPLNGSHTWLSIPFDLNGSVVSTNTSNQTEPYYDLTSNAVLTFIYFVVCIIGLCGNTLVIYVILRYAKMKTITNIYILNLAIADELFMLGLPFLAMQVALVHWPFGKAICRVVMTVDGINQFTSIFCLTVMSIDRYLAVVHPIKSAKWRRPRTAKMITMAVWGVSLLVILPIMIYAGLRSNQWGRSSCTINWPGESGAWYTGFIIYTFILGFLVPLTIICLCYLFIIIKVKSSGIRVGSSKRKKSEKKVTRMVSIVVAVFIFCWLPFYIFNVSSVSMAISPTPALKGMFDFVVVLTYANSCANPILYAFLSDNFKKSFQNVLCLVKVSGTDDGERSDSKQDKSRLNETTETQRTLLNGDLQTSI
T3 sequence (P32745 whole entry, species assumed): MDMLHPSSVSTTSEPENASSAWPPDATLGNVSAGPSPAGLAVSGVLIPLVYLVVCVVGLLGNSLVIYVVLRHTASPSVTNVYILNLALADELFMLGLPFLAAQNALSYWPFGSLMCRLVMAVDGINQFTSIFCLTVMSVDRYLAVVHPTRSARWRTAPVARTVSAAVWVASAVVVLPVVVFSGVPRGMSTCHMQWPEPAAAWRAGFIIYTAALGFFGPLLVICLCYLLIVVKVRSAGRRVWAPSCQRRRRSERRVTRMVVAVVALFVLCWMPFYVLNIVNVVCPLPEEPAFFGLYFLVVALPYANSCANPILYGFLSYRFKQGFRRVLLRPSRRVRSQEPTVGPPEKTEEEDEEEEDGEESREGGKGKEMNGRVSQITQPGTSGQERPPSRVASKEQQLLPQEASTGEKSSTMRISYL
T2 sequence (P30872 whole entry, species assumed): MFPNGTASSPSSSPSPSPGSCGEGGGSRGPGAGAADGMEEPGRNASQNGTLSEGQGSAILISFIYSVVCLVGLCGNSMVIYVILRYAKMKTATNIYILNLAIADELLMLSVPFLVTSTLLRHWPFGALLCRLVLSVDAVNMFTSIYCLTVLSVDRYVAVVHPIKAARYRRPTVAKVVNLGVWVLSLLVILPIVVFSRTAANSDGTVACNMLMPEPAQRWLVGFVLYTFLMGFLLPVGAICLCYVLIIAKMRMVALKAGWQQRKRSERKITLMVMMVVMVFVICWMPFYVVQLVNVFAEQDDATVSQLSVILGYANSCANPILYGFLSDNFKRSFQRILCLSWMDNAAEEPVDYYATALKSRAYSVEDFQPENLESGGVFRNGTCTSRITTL
SS1, sequence (P30680 whole entry): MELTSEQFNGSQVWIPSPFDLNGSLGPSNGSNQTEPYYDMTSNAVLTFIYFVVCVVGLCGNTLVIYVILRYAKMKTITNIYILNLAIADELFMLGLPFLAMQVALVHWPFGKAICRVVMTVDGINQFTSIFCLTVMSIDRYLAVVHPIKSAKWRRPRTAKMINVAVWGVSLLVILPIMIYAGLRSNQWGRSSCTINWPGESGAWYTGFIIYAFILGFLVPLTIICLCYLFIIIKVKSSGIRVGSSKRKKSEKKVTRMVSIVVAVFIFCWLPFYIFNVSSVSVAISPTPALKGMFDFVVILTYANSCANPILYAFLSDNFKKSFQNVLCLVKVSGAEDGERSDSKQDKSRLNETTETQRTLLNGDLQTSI

SMILES: Cc1cccc2c(CC3C(=O)N(CCCCCN)C(=O)N3S(=O)(=O)c3ccc(Oc4ccc(O)cc4)c(C(=O)N(C)C)c3)c[nH]c12 (stereo not drawn) [Compound 46]
- IC50 [1]: 0.00043 µM
- GH vivo s.c. 1 h ID50 (GH secretion [2]): 7.4 µg/kg and 7 µg/kg
- GH vivo s.c. 1 h ID50 (GH secretion [2]; listed as 46 b): ˜7.40 μg/kg
- GH vivo i.d. 1 h ID50 (GH secretion [3]): 19000 µg/kg
- INFUS. + GHRH ID50 MEAN ([4]; Table 4, mean of infusion time points): 7.89 µg/kg
- INFUS. + GHRH ID50 15′ ([4]; Table 4, urethan, 15′ of infusion): 9.38 µg/kg
- INFUS. + GHRH ID50 30′ ([4]; Table 4, urethan, 30′ of infusion): 8.14 µg/kg
- INFUS. + GHRH ID50 60′ ([4]; Table 4, urethan, 60′ of infusion): 6.43 µg/kg
- GH, Ur Inf15′ +GHRH ([4]; Tables 8/9, urethane, 15′ of infusion): 9.400 µg/kg/h
- GH, UR Inf30′ +GHRH ([4]; Tables 8/9, urethane, 30′ of infusion): 8.100 µg/kg/h
- GH, UR Inf60′ +GHRH ([4]; Tables 8/9, urethane, 60′ of infusion): 6.400 µg/kg/h
- GH vivo Inf + GHRH ID50 (mean of time points) ([4]; urethane, i.v. infusion, GHRH stimulated, listed as 46 b): 7.89 µg/kg/h and 7.900 µg/kg/h
- dose levels necessary for inhibition of hormone release, times higher than Octreotride [5]: about 100 times
- Bind SS1 D.H. (SS1): 0.63 nM
- IC50 (SSTR1): > 1 µM
- IC50 (SSTR3): 0.45 µM
- IC50 (SSTR4): > 1 µM
- IC50 (SSTR5): 0.09 µM
